From article PMC11489552, “Specific targeting of cancer vaccines to antigen-presenting cells via an endogenous TLR2/6 ligand derived from cysteinyl-tRNA synthetase 1” (Molecular Therapy, 2024)
Read-outs that look alike come from different tables or passages of the source.

What was measured:
[1] = test system: BMDCs; type: cell-based, C57BL/6 mice
[2] = In vivo toxicity (body weight, spleen, serum cytokines); parameters: species or system C57BL/6 mice; conditions: s.c.; EUCV 25.2 and 100.6 nmol, Pam2CSK4 100.6 nmol, poly(I:C) 2.5 nmol; serum at 2, 8, 24 h, ELISA
[3] = test system: TC-1 cells; experiment: In vitro cytotoxicity, CCK-8; type: cell-based, mouse; conditions: different concentrations, CCK-8 18 h after treatment
Protocol: (§1) The in vitro cytotoxicity test was assessed using Cell Counting Kit (CCK)-8 assays (Dojindo, no. CK04). DC2.4, Raw 264.7, and TC-1 cells were seeded onto 96-well plates for 24 h before treating them with different concentrations of EUCV and doxorubicin. A 10% CCK-8 solution was added to each well 18 h after treatment, and the plates were incubated at 37°C in a 5% CO2 atmosphere for 30 min to 4 h. The absorbance at 450 nm was detected using an instrument. Relative cell viability was calculated as a percentage of untreated control cells. To assess in vivo toxicity, E7 (100.6 nmol) and EUCV at 25 mpk (25.2 nmol) and 100 mpk (100.6 nmol) were subcutaneously injected into the backs of C57BL/6 mice. […] Mouse body weight was measured immediately after administration and at 24 h intervals, and at 48 h the mice were euthanized to measure spleen size to evaluate splenomegaly. After vaccine administration, blood was drawn at 2, 8, and 24 h, and cytokines IL-6 (BD, no. 555240) and IL-12p40 (BD, no. 555165) in serum were quantified using ELISA.

[4] = test system: Raw 264.7 cells; experiment: In vitro cytotoxicity, CCK-8; conditions: different concentrations, CCK-8 18 h after treatment
Protocol: as §1

[5] = test system: DC2.4 cells; experiment: In vitro cytotoxicity, CCK-8; conditions: different concentrations, CCK-8 18 h after treatment
Protocol: as §1

[6] = molecular target: T1, hTLR2/6 (Homo sapiens, UniProt O60603+Q9Y2C9); experiment: HEK-Blue SEAP assay (NF-κB); type: cell-based; conditions: HEK-Blue hTLR2/6 cells, 24 h
T1 construct: host or cells: HEK-Blue hTLR2/6 (HEK293-derived NF-kB/SEAP reporter cells)
T1 sequence (O60603 21-784): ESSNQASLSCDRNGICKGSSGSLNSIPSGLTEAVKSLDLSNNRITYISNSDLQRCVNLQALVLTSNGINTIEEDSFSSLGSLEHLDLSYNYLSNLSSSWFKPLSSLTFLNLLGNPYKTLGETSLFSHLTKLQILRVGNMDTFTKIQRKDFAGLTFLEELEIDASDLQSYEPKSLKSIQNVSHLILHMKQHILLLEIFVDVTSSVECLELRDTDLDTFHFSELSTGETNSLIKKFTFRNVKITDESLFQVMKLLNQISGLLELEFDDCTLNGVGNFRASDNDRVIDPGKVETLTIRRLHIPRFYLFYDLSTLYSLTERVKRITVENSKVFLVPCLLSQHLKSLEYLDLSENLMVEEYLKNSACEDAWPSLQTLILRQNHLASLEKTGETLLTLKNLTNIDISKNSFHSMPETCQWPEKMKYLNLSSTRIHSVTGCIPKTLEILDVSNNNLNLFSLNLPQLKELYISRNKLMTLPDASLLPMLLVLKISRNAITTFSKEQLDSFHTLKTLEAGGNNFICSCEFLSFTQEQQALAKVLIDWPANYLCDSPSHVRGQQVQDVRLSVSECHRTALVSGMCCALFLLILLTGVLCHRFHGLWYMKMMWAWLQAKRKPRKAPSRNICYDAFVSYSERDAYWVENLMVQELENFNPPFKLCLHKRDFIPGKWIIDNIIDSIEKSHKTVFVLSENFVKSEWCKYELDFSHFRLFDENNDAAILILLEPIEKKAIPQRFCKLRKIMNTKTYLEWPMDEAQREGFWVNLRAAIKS
T1 sequence (Q9Y2C9 32-796): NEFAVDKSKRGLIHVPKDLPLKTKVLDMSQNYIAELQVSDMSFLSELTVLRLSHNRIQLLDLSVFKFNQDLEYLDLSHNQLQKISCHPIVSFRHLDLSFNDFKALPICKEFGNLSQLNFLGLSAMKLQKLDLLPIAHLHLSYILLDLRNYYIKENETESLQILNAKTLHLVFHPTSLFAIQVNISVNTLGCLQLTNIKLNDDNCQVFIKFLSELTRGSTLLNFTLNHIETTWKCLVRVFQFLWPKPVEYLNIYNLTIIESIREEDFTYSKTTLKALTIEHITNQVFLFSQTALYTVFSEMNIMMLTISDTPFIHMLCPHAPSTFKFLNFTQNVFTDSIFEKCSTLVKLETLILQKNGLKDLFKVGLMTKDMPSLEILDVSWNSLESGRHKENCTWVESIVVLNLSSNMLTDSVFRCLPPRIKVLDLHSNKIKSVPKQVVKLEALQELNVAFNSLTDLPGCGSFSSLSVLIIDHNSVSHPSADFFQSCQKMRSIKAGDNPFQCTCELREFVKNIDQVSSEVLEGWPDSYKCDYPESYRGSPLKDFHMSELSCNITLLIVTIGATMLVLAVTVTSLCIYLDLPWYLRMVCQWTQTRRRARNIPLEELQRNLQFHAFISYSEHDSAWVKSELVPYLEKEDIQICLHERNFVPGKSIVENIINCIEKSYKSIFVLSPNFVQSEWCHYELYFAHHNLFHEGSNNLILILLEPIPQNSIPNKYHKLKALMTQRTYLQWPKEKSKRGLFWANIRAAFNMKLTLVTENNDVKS
Protocol: HEK-Blue hTLR2/6 (Invivogen, no. hkb-htlr26), hTLR2/1 (Invivogen, no. hkb-htlr21), and hTLR4 (Invivogen, no. hkb-htlr4) cells were cultured in DMEM (HyClone, no. SH30243.01) supplemented with 10% heat-inactivated FBS, 1% penicillin-streptomycin, and 100 μg/mL normocin (Invivogen, no. ant-nr-1), with added HEK-Blue Selection (Invivogen, no. hb-sel) added in medium after the cells were passaged twice. For the SEAP assay, HEK-Blue cells were harvested and resuspended to 2.8 × 10^5 cells/mL in a culture medium. […] The plates were then incubated for 24 h at 37°C, and 5% CO2 and the supernatant was collected. After removing the remaining cells by centrifugation, 20 μL of supernatant was transferred into a 96-well plate with 180 μL QUNATI-Blue solution (Invivogen, no. rep-pbs). All plates were incubated at 37°C, 5% CO2 for 3–4 h, and absorbance was measured at 620 nm with a microplate reader (TECAN, no. 30087502).

[7] = test system: bone marrow-derived dendritic cells (BMDCs); experiment: BMDC stimulation: costimulatory molecules and cytokines; type: cell-based, C57BL/6 mice; conditions: 100 nM, 24 h, ELISA
Protocol: Bone marrow was harvested from femurs and tibias of C57BL/6 mice. Red blood cells were lysed with Pharm Lyse lysing solution (BD, no. 555899), and the remaining cells were washed using DPBS (HyClone, no. SH30378.02), followed by centrifugation to the collection. Bone marrow cells were resuspended at a concentration of 1 × 10^6 cells/mL in RPMI-1640 medium supplemented with 10% FBS, 1% streptomycin-penicillin, and 20 ng/mL GM-CSF (R&D Systems, no. 415-ML-005). On day 3, add an additional medium of the same supplemented as described above. BMDCs were harvested on day 6 and seeded at 3 × 10^5 cells/mL in 24-well plates for stimulation.
Differentiated THP-1, BMDC (3 × 10^5 cells per well) were seeded, and after 24 h starved with serum-free-medium for 1 h. […] To measure the inflammatory cytokine level, the culture medium was harvested, centrifuged at 500 × g for 10 min at 4°C, and the supernatant was separated. The expression of inflammatory cytokines was measured using hTNF-α (BD, no. 555212), IL-12p70 (BD, no. 555256), IL-12p40 (BD, no. 555165), and IL-6 (BD, no. 555240) ELISA kits according to the manufacturer’s instructions. To investigate the expression of costimulatory molecules on the cell surface, cells were harvested using dissociation buffer (5 mM EDTA in DPBS), washed, and stained with 1 μg/mL antibody, followed by flow cytometry analysis. […]

[8] = test system: TC-1 tumors; experiment: TC-1 tumor model, combination with anti-PD-1 blockade; type: in vivo, C57BL/6 mice
Protocol: TC-1 tumor cells expressing HPV16-E6 and E7 proteins and E.G7-OVA cells expressing chicken OVA were used to generate of mouse tumor model. For the therapeutic cancer vaccine model, 7-week-old C57BL/6 mice were subcutaneously injected on the right flank with TC-1 cells (1 × 10^5 cells per mouse) in 100 μL DPBS. On day 6 when tumors measured 100 mm^3 […], treatment with 5 nmol of E, E+U, and EUCV was initiated as indicated in the schedule. On day 20 mice were sacrificed, and tumor tissues were collected for TILs analysis. For the anti-PD-1 antibody combination model, 5 nmol of E and EUCV was injected subcutaneously, and 200 μg of anti-PD-1 antibody (BioXcell, clone 29F.1A12, no. BE0273) was injected intraperitoneally as indicated in the schedule. On day 20 mice were sacrificed, and tumor tissues were collected for qRT-PCR and immunohistochemistry analysis. Survival was recorded by observing the mice up to 60 days and mice were euthanized when tumor volume reached 1,500 mm^3. For the E.G7-OVA tumor model, 7-week-old C57BL/6 mice were subcutaneously injected on the right flank with E.G7-OVA cells (1 × 10^6 cells per mouse) in 100 μL DPBS. On day 3 when the tumor measured 100 mm^3 […], treatment with 5 nmol of O, O+U, and OUCV was initiated as indicated in the schedule. On day 17 mice were sacrificed, and tumor tissue was collected for TIL analysis. In all experiments, tumors were measured 3 times a week using a caliper and calculated using the formula V(volume:mm^3)=L(length)×W^2(width)×0.52 ,[5] and mice were euthanize when tumor volume reached 1,500 mm^3.

[9] = Biodistribution to lymph nodes by IVIS imaging; type: in vivo, C57BL/6 mice; conditions: subcutaneous, 5 nmol FAM-labeled, IVIS over time, n = 3 per group
Protocol: Seven-week-old C57BL/6 mice were subcutaneously injected with 5 nmol FAM-E-, FAM-E+U-, or FAM-labeled EUCV, respectively. After 0.5, 2, 6, or 24 h, organs were collected and washed with PBS to remove any remaining blood. For biodistribution analysis, images were obtained using an In Vivo Imaging System (IVIS) Lumina II imaging systems (PerkinElmer; excitation 494 nm, emission 518 nm) and analyzed by Living Image software.

[10] = Pharmacokinetics: plasma level of FAM-labeled antigen after injection; type: in vivo; conditions: subcutaneous, 5 nmol 5-FAM-labeled, C57BL/6 mice, n = 3 per group, plasma diluted 1:20 in PBS, fluorescence Ex/Em 494/518 nm, followed for 24 h
Protocol: Seven-week-old mice were intravenously or subcutaneously injected with 5 nmol labeled SLP or protein. At the indicated time point, blood was collected using ophthalmic bleeding into heparin-coated micro hematocrit capillary tubes (Fisherbrand, no. 22-362574). After being transferred blood into a microtube, plasma was isolated from blood by centrifugation at 4°C for 10 min at 1,000 × g to eliminate the cells, and then centrifugation at 4°C for 15 min 2,000 × g for removed platelets. The plasma was diluted 1:20 into PBS and measured on Infinite 200 PRO (TECAN) against a standard curve of analytes diluted into PBS (Ex/Em: 494/518 nm). All plasma was normalized to the maximum fluorescence detected in the individual injection sample and plotted as percent injection dose (% ID) versus time. The half-life was calculated by fitting the intravenous plasma curve using C=C0×e^–kt . The subcutaneous curve was fit to C=[F×ka×C0/VD(ka–k)]×(e^–k×t–e^–ka×t ), where C is the plasma concentration of indicated times, C0 is the initial serum concentration, k is the elimination rate constant, F is the systemic absorbance, ka is the absorption rate constant, VD is the volume of distribution.[72] The curve graphs were represented using nonlinear regression on GraphPad Prism.

[11] = test system: spleen cells re-stimulated with epitope peptides; experiment: SLP screening, IFN-γ ELISpot; type: in vivo, C57BL/6 mice; conditions: 20 μg SLP with U (100 μg) s.c. twice, spleen cells 7 days after final immunization
Protocol: Seven-week-old C57BL/6 mice were immunized subcutaneously in the right back twice at 1-week intervals using SLPs (HPV16 E6_23–42, E6_43–62, E6_123–143, E75–25, E7_43–62, and E7_76–95; 20 μg per SLP) with U (100 μg). After 7 days at final immunization, cells were isolated from the spleen and seeded in the ELISpot well in triplicates (5 × 10^5 cells per well) with 10 μg/mL of re-stimulatory 8–9 mer epitope peptides (HPV16 E6_29–37, E6_49–57, E6_129–138, E7_11–19, E7_49–57, and E7_82–90), respectively. Antigen-specific immune responses were detected by AID EliSpot Reader (AID, no. ELR08).

[12] = test system: BMDCs; experiment: In vitro antigen presentation ([…]/H-2K^b) in BMDCs; type: cell-based, C57BL/6 mice
Protocol: To examine TLR2-specific antigen uptake and presentation, BMDCs were isolated from TLR2^WT and TLR2^–/– mice as described above. BMDC cells (3 × 10^5) were seeded in the 24-well plate. […] C8138), 20 or 40 μM dynasore (Sigma, no. 324410), 1 or 2 μM cathepsin S inhibitor (MCE, no. LY 3000328), 1 or 2 μM methyl-β-cyclodextrin (Sigma-Aldrich, no. C4555), or 1 or 2 mM amiloride (Merck, no. A7410) 1 mg/mL for 30 min. After pretreatment, labeled or native samples were treated in the wells, followed by antigen uptake or presentation analyzed by flow cytometry as described above.

[13] = BMDCs pretreated 30 min with inhibitor at various concentrations, then FAM-labeled sample 100 nM 24 h, flow cytometry
[14] = BMDCs pretreated 30 min with inhibitor, then 100 nM O, O+U or OUCV, flow cytometry

N=C(N)NC(=O)c1nc(Cl)c(N)nc1N [amiloride]
effect of endocytosis/processing inhibitor on E+U and EUCV uptake [1, 13]: no change

poly(I:C)
bloodstream cytokines (IL-6, IL-12p40), systemic toxicity [2]: significant inflammatory cytokine expression

COc1cccc2c1C(=O)c1c(O)c3c(c(O)c1C2=O)C[C@@](O)(C(=O)CO)C[C@@H]3O[C@H]1C[C@H](N)[C@H](O)[C@H](C)O1 [doxorubicin]
cytotoxicity (relative cell viability) [3]: concentration-dependent toxicity | cytotoxicity (relative cell viability) [4]: concentration-dependent toxicity | cytotoxicity (relative cell viability) [5]: concentration-dependent toxicity

Pam2CSK4
nuclear factor κB induction (SEAP, OD620) [6]: induced nuclear factor κB in TLR2/6-expressing cells | bloodstream cytokines (IL-6, IL-12p40), systemic toxicity [2]: significant inflammatory cytokine expression

GQAEPDRAHYNIVTFCCKCD [HPV-16 E7_43–62 synthetic long peptide antigen]
secretion of IL-12p70 and IL-6 [7]: absent | mortality by day 26 ([8]; TC-1 tumor-bearing mice, 5 nmol s.c. days 6 and 13, anti-PD-1 200 μg i.p. days 6, 9, 12, 15, n = 8): 100% | Complete regression (mice / group) ([8]; TC-1 tumor-bearing mice, 60 days, n = 8 per group, printed in Figure 5C): 0/8 | tumor growth ([8]; TC-1 tumors, 5 nmol s.c. days 6 and 13, with or without anti-PD-1 blockade, n = 8): Neither E alone nor the combination of E+αPD-1 blockade significantly suppressed tumor growth | distribution among inguinal, axillary and iliac lymph nodes [9]: diffused distribution to axillary and iliac LNs beyond inguinal LNs near the injection site | time at which the blood concentration peaked [10]: 0.25 h | IFN-γ activity among E6- and E7-derived SLPs [11]: highest interferon gamma (IFN-γ) activity

CNC(=O)O[C@H]1COc2ccc(N3CCN(C4COC4)CC3)cc2[C@@H]1NC(=O)c1ccc(F)cc1 [CS]
effect of endocytosis/processing inhibitor on E+U and EUCV uptake [1]: no change | effect of inhibitor on antigen presentation (SIINFEKL/H-2K^b) [12]: reduction in antigen presentation

methyl-β-cyclodextrin [Mbcd]
effect of endocytosis/processing inhibitor on E+U and EUCV uptake [1, 13]: no change

CN(C)CCCN1c2ccccc2Sc2ccc(Cl)cc21 [CM, chlorpromazine]
effect of endocytosis/processing inhibitor on E+U and EUCV uptake [1, 13]: reduced E+U and EUCV uptake | effect of inhibitor on antigen presentation (SIINFEKL/H-2K^b) [12, 14]: reduced

O=C(N/N=C/c1ccc(O)c(O)c1)c1cc2ccccc2cc1O [dynasore]
effect of endocytosis/processing inhibitor on E+U and EUCV uptake [1, 13]: reduced E+U and EUCV uptake | effect of inhibitor on antigen presentation (SIINFEKL/H-2K^b) [12, 14]: reduced
